“And” between values parts separate entries of the source, which are not always exact repeats. Equal entries are not always repeated.
Assay: molar heat capacity at constant pressure
Conditions: 101.33 kPa, Crystal, relaxation calorimetry

O[C@H]1[C@H](O)[C@H](O)OC[C@H]1O [β-D-arabinopyranose]
Conditions	molar heat capacity at constant pressure
0.5 K	0.0007532 J/K/mol
1 K	0.00191 J/K/mol
1.5 K	0.0039 J/K/mol
1.93 K	0.00664 J/K/mol
2 K	0.007206 J/K/mol
2.03 K	0.00744 J/K/mol
2.14 K	0.00853 J/K/mol
2.26 K	0.00959 J/K/mol
2.38 K	0.01108 J/K/mol
2.5 K	0.01239 J/K/mol
2.51 K	0.01247 J/K/mol
2.64 K	0.01457 J/K/mol
2.78 K	0.01653 J/K/mol
2.94 K	0.01919 J/K/mol
3 K	0.02013 J/K/mol
3.1 K	0.02195 J/K/mol
3.27 K	0.02605 J/K/mol
3.43 K	0.02956 J/K/mol
3.5 K	0.03122 J/K/mol
3.63 K	0.03481 J/K/mol
3.81 K	0.03999 J/K/mol
4 K	0.04664 J/K/mol
4.03 K	0.04762 J/K/mol
4.23 K	0.05477 J/K/mol
4.47 K	0.06546 J/K/mol
4.5 K	0.06755 J/K/mol
4.7 K	0.07779 J/K/mol
4.96 K	0.09273 J/K/mol
5 K	0.09528 J/K/mol
5.22 K	0.109 J/K/mol
5.5 K	0.1311 J/K/mol and 0.1314 J/K/mol
5.79 K	0.157 J/K/mol
6 K	0.1776 J/K/mol
6.1 K	0.19 J/K/mol
6.42 K	0.2256 J/K/mol
6.5 K	0.2359 J/K/mol
6.77 K	0.2719 J/K/mol
7 K	0.308 J/K/mol
7.12 K	0.328 J/K/mol
7.5 K	0.396 J/K/mol
7.51 K	0.3961 J/K/mol
7.9 K	0.4794 J/K/mol
8 K	0.5015 J/K/mol
8.33 K	0.5808 J/K/mol
8.5 K	0.6256 J/K/mol
8.76 K	0.6949 J/K/mol
9 K	0.7669 J/K/mol
9.24 K	0.8445 J/K/mol
9.5 K	0.9266 J/K/mol
9.72 K	1.004 J/K/mol
10 K	1.105 J/K/mol
10.23 K	1.191 J/K/mol
10.77 K	1.405 J/K/mol
11 K	1.517 J/K/mol
11.32 K	1.667 J/K/mol
11.92 K	1.965 J/K/mol
12 K	2 J/K/mol
12.56 K	2.311 J/K/mol
13 K	2.549 J/K/mol
13.23 K	2.685 J/K/mol
13.94 K	3.128 J/K/mol
14 K	3.158 J/K/mol
14.68 K	3.61 J/K/mol
15 K	3.821 J/K/mol
15.46 K	4.149 J/K/mol
16 K	4.53 J/K/mol
16.31 K	4.747 J/K/mol
17 K	5.279 J/K/mol
17.15 K	5.4 J/K/mol
18 K	6.059 J/K/mol
18.08 K	6.128 J/K/mol
19 K	6.866 J/K/mol
19.05 K	6.89 J/K/mol
20 K	7.693 J/K/mol
20.08 K	7.769 J/K/mol
21.14 K	8.663 J/K/mol
22.3 K	9.532 J/K/mol
23.47 K	10.62 J/K/mol
24.74 K	11.68 J/K/mol
25 K	11.98 J/K/mol
26.04 K	12.89 J/K/mol
27.46 K	14.03 J/K/mol
28.89 K	15.45 J/K/mol
30 K	16.33 J/K/mol
30.43 K	16.8 J/K/mol
32.08 K	18.29 J/K/mol
33.81 K	19.73 J/K/mol
35 K	20.68 J/K/mol
35.6 K	21.31 J/K/mol
37.52 K	22.92 J/K/mol
39.51 K	24.55 J/K/mol
40 K	25.02 J/K/mol
41.64 K	26.31 J/K/mol
43.83 K	28.17 J/K/mol
45 K	29.23 J/K/mol
46.19 K	30 J/K/mol
48.63 K	31.87 J/K/mol
50 K	33.14 J/K/mol
51.26 K	34.52 J/K/mol
53.96 K	35.9 J/K/mol
55 K	36.8 J/K/mol
56.88 K	38.09 J/K/mol
59.89 K	40.36 J/K/mol
60 K	40.35 J/K/mol
63.13 K	42.59 J/K/mol
65 K	43.88 J/K/mol
66.46 K	45.03 J/K/mol
70 K	47.36 J/K/mol
70.07 K	47.59 J/K/mol
73.76 K	50.07 J/K/mol
75 K	50.8 J/K/mol
77.78 K	52.92 J/K/mol
80 K	54.2 J/K/mol
81.9 K	55.02 J/K/mol
85 K	57.56 J/K/mol
86.34 K	58.01 J/K/mol
90 K	60.88 J/K/mol
90.84 K	61.56 J/K/mol
95 K	64.18 J/K/mol
95.82 K	64.72 J/K/mol
100 K	67.44 J/K/mol
100.82 K	67.63 J/K/mol
105.87 K	71.22 J/K/mol
110 K	73.87 J/K/mol
110.95 K	74.61 J/K/mol
116.03 K	77.25 J/K/mol
120 K	80.2 J/K/mol
121.05 K	81.12 J/K/mol
126.07 K	84.2 J/K/mol
130 K	86.45 J/K/mol
131.11 K	87.48 J/K/mol
136.18 K	90.66 J/K/mol
140 K	92.63 J/K/mol
141.2 K	93.47 J/K/mol
146.26 K	96.4 J/K/mol
150 K	98.75 J/K/mol
151.33 K	99.46 J/K/mol
156.34 K	102.71 J/K/mol
160 K	104.83 J/K/mol
161.42 K	105.84 J/K/mol
166.44 K	108.82 J/K/mol
170 K	110.86 J/K/mol
171.52 K	111.71 J/K/mol
176.58 K	114.66 J/K/mol
180 K	116.86 J/K/mol
181.62 K	117.85 J/K/mol
186.66 K	121.01 J/K/mol
190 K	122.82 J/K/mol
191.69 K	123.97 J/K/mol
196.75 K	126.57 J/K/mol
200 K	128.77 J/K/mol
201.79 K	129.39 J/K/mol
206.8 K	132.11 J/K/mol
210 K	134.69 J/K/mol
211.88 K	135.86 J/K/mol
216.86 K	138.45 J/K/mol
220 K	140.59 J/K/mol
221.99 K	141.54 J/K/mol
226.98 K	144.9 J/K/mol
230 K	146.48 J/K/mol
232.03 K	147.66 J/K/mol
237.15 K	150.47 J/K/mol
240 K	152.35 J/K/mol
242.11 K	153.65 J/K/mol
247.24 K	156.9 J/K/mol
250 K	158.21 J/K/mol
252.28 K	159.78 J/K/mol
257.34 K	162.75 J/K/mol
260 K	164.06 J/K/mol
262.36 K	165.45 J/K/mol
267.38 K	168.46 J/K/mol
270 K	169.9 J/K/mol
272.39 K	171.4 J/K/mol
273.15 K	171.74 J/K/mol
277.53 K	174.86 J/K/mol
280 K	175.73 J/K/mol
282.55 K	177.62 J/K/mol
287.61 K	180.21 J/K/mol
290 K	181.55 J/K/mol
292.62 K	182.92 J/K/mol
297.64 K	185.3 J/K/mol
298.15 K	186.29 J/K/mol
300 K	187.36 J/K/mol
302.65 K	188.73 J/K/mol

Source: the NIST ThermoML archive (doi:10.1016/j.jct.2015.08.031)
